Here are results for 21 compounds from patent publication US7700782B2, “Compounds 569” (AstraZeneca AB, priority 2007, dated 2010).

Each structure is given as a SMILES string. Where a name gives a salt, the structure may show the parent alone.

The test deals with T1, Adrenergic β2 (Homo sapiens, UniProt P07550).
T1 construct: Adherent H292 cells were removed from tissue culture flasks; endogenous in cells; host or cells: H292 cells
T1 sequence (P07550 whole entry): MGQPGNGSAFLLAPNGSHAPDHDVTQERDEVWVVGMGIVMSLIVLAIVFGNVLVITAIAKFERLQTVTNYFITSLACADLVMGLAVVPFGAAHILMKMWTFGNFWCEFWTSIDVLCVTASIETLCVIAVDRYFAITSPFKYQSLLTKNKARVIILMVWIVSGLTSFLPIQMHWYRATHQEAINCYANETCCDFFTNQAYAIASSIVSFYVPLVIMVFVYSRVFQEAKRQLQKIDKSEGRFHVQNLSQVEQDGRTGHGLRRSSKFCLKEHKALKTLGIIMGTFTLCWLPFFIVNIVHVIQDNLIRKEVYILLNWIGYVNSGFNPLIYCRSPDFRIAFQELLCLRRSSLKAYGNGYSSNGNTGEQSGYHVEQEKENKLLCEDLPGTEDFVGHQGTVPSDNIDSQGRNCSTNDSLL
The experiment in a line: Adrenergic β2 mediated cAMP production in H292 cells (AlphaScreen cAMP detection). Format: cell-based. As to conditions: Intrinsic Activity, fraction relative to the maximum activity determined for formoterol. Here is the method: Adrenergic β2 Mediated cAMP Production
H292 cells were grown in 225 cm2 flasks incubator at 37° C., 5% CO2 in RPMI medium containing, 10% (v/v) FBS (foetal bovine serum) and 2 mM L-glutamine.
Adherent H292 cells were removed from tissue culture flasks by treatment with Accutase™ cell detachment solution for 15 minutes. Flasks were incubated for 15 minutes in a humidified incubator at 37° C., 5% CO2. Detached cells were re-suspended in RPMI media (containing 10% (v/v) FBS and 2 mM L-glutamine) at 0.05×10^6 cells per mL. 5000 cells in 100 μL were added to each well of a tissue-culture-treated 96-well plate and the cells incubated overnight in a humidified incubator at 37° C., 5% CO2. The culture media was removed and cells were washed twice with 100 μL assay buffer and replaced with 50 μL assay buffer (HBSS solution containing 10 mM HEPES pH 7.4 and 5 mM glucose). Cells were rested at room temperature for 20 minutes after which time 25 μL of rolipram (1.2 mM made up in assay buffer containing 2.4% (v/v) dimethylsulphoxide) was added. Cells were incubated with rolipram for 10 minutes after which time test compounds were added and the cells were incubated for 60 minutes at room temperature. The final rolipram concentration in the assay was 300 μM and final vehicle concentration was 1.6% (v/v) dimethylsulphoxide. The reaction was stopped by removing supernatants, washing once with 100 μL assay buffer and replacing with 50 μL lysis buffer. The cell monolayer was frozen at −80° C. for 30 minutes (or overnight).
The concentration of cAMP (cyclic adenosine monophosphate) in the cell lysate was determined using AlphaScreen™ methodology. The frozen cell plate was thawed for 20 minutes on a plate shaker then 10 μL of the cell lysate was transferred to a 96-well white plate. 40 μL of mixed AlphaScreen™ detection beads pre-incubated with biotinylated cAMP, was added to each well and the plate incubated at room temperature for 10 hours in the dark. The AlphaScreen™ signal was measured using an EnVision spectrophotometer (Perkin-Elmer Inc.) with the recommended manufacturer's settings. cAMP concentrations were determined by reference to a calibration curve determined in the same experiment using standard cAMP concentrations. Concentration response curves for agonists were constructed and data was fitted to a four parameter logistic equation to determine both the pEC50 and Intrinsic Activity. Intrinsic Activity was expressed as a fraction relative to the maximum activity determined for formoterol in each experiment.
(In general: cAMP levels reflect the balance of adenylyl cyclase and phosphodiesterase activity.)
`CC(C)N(CCNCCc1ccc(O)c2[nH]c(=O)sc12)C(=O)CCNCCc1ccccc1` [Example 1, N-(2-{[2-(4-Hydroxy-2-oxo-2,3-dihydro-1,3-benzothiazol-7-yl)ethyl]amino}ethyl)-N-isopropyl-N^3-(2-phenylethyl)-β-alaninamide bis-trifluoroacetic acid salt]: the “β2 Int Act” value was 0.78.
The figure for `CC(C)N(CCNCCc1ccc(O)c2[nH]c(=O)sc12)C(=O)CCNCCc1ccc(Cl)cc1` [Example 3, N^3-[2-(4-Chlorophenyl)ethyl]-N-(2-{[2-(4-hydroxy-2-oxo-2,3-dihydro-1,3-benzothiazol-7-yl)ethyl]amino}ethyl)-N-isopropyl-β-alaninamide bis-trifluoroacetic acid salt] is 0.34; for `O=C(CCNCCc1ccccc1)N(CCNCCc1ccc(O)c2[nH]c(=O)sc12)C1CCC(F)(F)CC1` [Example 4, N-(4,4-Difluorocyclohexyl)-N-(2-{[2-(4-hydroxy-2-oxo-2,3-dihydro-1,3-benzothiazol-7-yl)ethyl]amino}ethyl)-N^3-(2-phenylethyl)-β-alaninamide bis-trifluoroacetic acid salt] it is 0.79; for `O=C(CCNCCc1ccccc1)N(CCNCCc1ccc(O)c2[nH]c(=O)sc12)C1CCCCC1` [Example 5, N-Cyclohexyl-N-(2-{[2-(4-hydroxy-2-oxo-2,3-dihydro-1,3-benzothiazol-7-yl)ethyl]amino}ethyl)-N^3-(2-phenylethyl)-β-alaninamide bis-trifluoroacetic acid salt] it is 0.83.
`CC(C)(C)CN(CCNCCc1ccc(O)c2[nH]c(=O)sc12)C(=O)CCNCCc1ccccc1` [Example 6, N-(2,2-Dimethylpropyl)-N-(2-{[2-(4-hydroxy-2-oxo-2,3-dihydro-1,3-benzothiazol-7-yl)ethyl]amino}ethyl)-N^3-(2-phenylethyl)-β-alaninamide bis-trifluoroacetic acid salt]: the “β2 Int Act” value was 0.89.
The figure for `CC(C)(C)CN(CCNCCc1ccc(O)c2[nH]c(=O)sc12)C(=O)CCNCCc1cccc(Cl)c1` [Example 7, N^3-[2-(3-Chlorophenyl)ethyl]-N-(2,2-dimethylpropyl)-N-(2-{[2-(4-hydroxy-2-oxo-2,3-dihydro-1,3-benzothiazol-7-yl)ethyl]amino}ethyl)-β-alaninamide bis-trifluoroacetic acid salt] is 0.68; for `CC(C)(C)CN(CCNCCc1ccc(O)c2[nH]c(=O)sc12)C(=O)CCNCCc1ccc(Cl)cc1` [Example 8, N^3-[2-(4-Chlorophenyl)ethyl]-N-(2,2-dimethylpropyl)-N-(2-{[2-(4-hydroxy-2-oxo-2,3-dihydro-1,3-benzothiazol-7-yl)ethyl]amino}ethyl)-β-alaninamide bis-trifluoroacetic acid salt] it is 0.73.
As to `CC(C)(C)CN(CCNCCc1ccc(O)c2[nH]c(=O)sc12)C(=O)CCNCCc1ccc(Cl)c(Cl)c1` [Example 9, N^3-[2-(3,4-Dichlorophenyl)ethyl]-N-(2,2-dimethylpropyl)-N-(2-{[2-(4-hydroxy-2-oxo-2,3-dihydro-1,3-benzothiazol-7-yl)ethyl]amino}ethyl)-β-alaninamide bis-trifluoroacetic acid salt], the “β2 Int Act” value is on record as 0.65.
As for `Cc1cccc(CCNCCC(=O)N(CCNCCc2ccc(O)c3[nH]c(=O)sc23)CC(C)(C)C)c1` [Example 10, N-(2,2-Dimethylpropyl)-N-(2-{[2-(4-hydroxy-2-oxo-2,3-dihydro-1,3-benzothiazol-7-yl)ethyl]amino}ethyl)-N^3-[2-(3-methylphenyl)ethyl]-β-alaninamide bis-trifluoroacetic acid salt], the figure is 0.69; as for `C[C@H](CNCCC(=O)N(CCNCCc1ccc(O)c2[nH]c(=O)sc12)CC(C)(C)C)c1ccccc1` [Example 11, N-(2,2-Dimethylpropyl)-N-(2-{[2-(4-hydroxy-2-oxo-2,3-dihydro-1,3-benzothiazol-7-yl)ethyl]amino}ethyl)-N^3-[(2S)-2-phenylpropyl]-β-alaninamide bis-trifluoroacetic acid salt], 0.84; as for `O=C(CCNCCc1cccc(Cl)c1)N(CCNCCc1ccc(O)c2[nH]c(=O)sc12)C1CCCCC1` [Example 12, N^3-[2-(3-Chlorophenyl)ethyl]-N-cyclohexyl-N-(2-{[2-(4-hydroxy-2-oxo-2,3-dihydro-1,3-benzothiazol-7-yl)ethyl]amino}ethyl)-β-alaninamide bis-trifluoroacetic acid salt], 0.87.
The figure for `O=C(CCNCCc1ccc(Cl)cc1)N(CCNCCc1ccc(O)c2[nH]c(=O)sc12)C1CCCCC1` [Example 13, N^3-[2-(4-Chlorophenyl)ethyl]-N-cyclohexyl-N-(2-{[2-(4-hydroxy-2-oxo-2,3-dihydro-1,3-benzothiazol-7-yl)ethyl]amino}ethyl)-β-alaninamide bis-trifluoroacetic acid salt] is 0.71; for `Cc1cccc(CCNCCC(=O)N(CCNCCc2ccc(O)c3[nH]c(=O)sc23)C2CCCCC2)c1` [Example 14, N-Cyclohexyl-N-(2-{[2-(4-hydroxy-2-oxo-2,3-dihydro-1,3-benzothiazol-7-yl)ethyl]amino}ethyl)-N^3-[2-(3-methylphenyl)ethyl]-β-alaninamide bis-trifluoroacetic acid salt] it is 0.84.
The figure for `O=C(CCNCCc1ccc(F)cc1)N(CCNCCc1ccc(O)c2[nH]c(=O)sc12)C1CCCCC1` [Example 16, N-Cyclohexyl-N^3-[2-(4-fluorophenyl)ethyl]-N-(2-{[2-(4-hydroxy-2-oxo-2,3-dihydro-1,3-benzothiazol-7-yl)ethyl]amino}ethyl)-β-alaninamide bis-trifluoroacetic acid salt] is 0.91; for `O=C(CCNCCc1ccccc1Cl)N(CCNCCc1ccc(O)c2[nH]c(=O)sc12)C1CCCCC1` [Example 17, N^3-[2-(2-Chlorophenyl)ethyl]-N-cyclohexyl-N-(2-{[2-(4-hydroxy-2-oxo-2,3-dihydro-1,3-benzothiazol-7-yl)ethyl]amino}ethyl)-β-alaninamide bis-trifluoroacetic salt] it is 0.90.
In the case of `C[C@H](CNCCC(=O)N(CCNCCc1ccc(O)c2[nH]c(=O)sc12)C1CCCCC1)c1ccccc1` [Example 18, N-Cyclohexyl-N-(2-{[2-(4-hydroxy-2-oxo-2,3-dihydro-1,3-benzothiazol-7-yl)ethyl]amino}ethyl)-N^3-[(2S)-2-phenylpropyl]-β-alaninamide bis-trifluoroacetic acid salt], the “β2 Int Act” value is 0.89.
With `CC(C)(Cc1ccccc1)NCCC(=O)N(CCNCCc1ccc(O)c2[nH]c(=O)sc12)C1CCCCC1` [Example 19, N-Cyclohexyl-N^3-(1,1-dimethyl-2-phenylethyl)-N-(2-{[2-(4-hydroxy-2-oxo-2,3-dihydro-1,3-benzothiazol-7-yl)ethyl]amino}ethyl)-β-alaninamide bis-trifluoroacetic acid salt], the “β2 Int Act” value worked out at 0.70.
`C[C@@H](CNCCC(=O)N(CCNCCc1ccc(O)c2[nH]c(=O)sc12)C1CCCCC1)c1ccccc1` [Example 20, N-Cyclohexyl-N-(2-{[2-(4-hydroxy-2-oxo-2,3-dihydro-1,3-benzothiazol-7-yl)ethyl]amino}ethyl)-N^3-[(2R)-2-phenylpropyl]-β-alaninamide bis-trifluoroacetic acid salt]: the “β2 Int Act” value is listed as 0.97.
Turning to `CC(C)(CNCCC(=O)N(CCNCCc1ccc(O)c2[nH]c(=O)sc12)C1CCCCC1)c1ccccc1` [Example 21, N-Cyclohexyl-N-(2-{[2-(4-hydroxy-2-oxo-2,3-dihydro-1,3-benzothiazol-7-yl)ethyl]amino}ethyl)-N^3-(2-methyl-2-phenylpropyl)-β-alaninamide bis-trifluoroacetic acid salt], the “β2 Int Act” value stood at 0.85.
With `O=C(CCNCCc1cccc(Cl)c1)N(CCNCCc1ccc(O)c2[nH]c(=O)sc12)C1CCOCC1` [Example 22, N^3-[2-(3-Chlorophenyl)ethyl]-N-(2-{[2-(4-hydroxy-2-oxo-2,3-dihydro-1,3-benzothiazol-7-yl)ethyl]amino}ethyl)-N-(tetrahydro-2H-pyran-4-yl)-β-alaninamide bis-trifluoroacetic acid salt], the “β2 Int Act” value is 0.96.
Turning to `O=C(CCNCCc1ccccc1)N(CCNCCc1ccc(O)c2[nH]c(=O)sc12)C1CCCCCC1` [Example 23, N-Cycloheptyl-N-(2-{[2-(4-hydroxy-2-oxo-2,3-dihydro-1,3-benzothiazol-7-yl)ethyl]amino}ethyl)-N^3-(2-phenylethyl)-β-alaninamide bis-trifluoroacetic acid salt], the “β2 Int Act” value was 0.85.
